Experimental data from article PMC5762315, “Inhibition of polo-like kinase 4 (PLK4): a new therapeutic option for rhabdoid tumors and pediatric medulloblastoma” (Oncotarget, 2017).

What was measured:
MON cells = assay: Combination therapy viability assay, MON; type: cell-based; conditions: Homo sapiens, cytotoxic drug alone, 72 hours, read-out: IC50 of compound 2
BT-16 cells = assay: Combination therapy viability assay, BT-16; type: cell-based; conditions: Homo sapiens, cytotoxic drug alone, 72 hours, read-out: IC50 of compound 2
DAOY cells = assay: Combination therapy viability assay, DAOY; conditions: Homo sapiens, 72 h, read-out: IC50 of compound 2

| SMILES | IC50 (MON cells) [nM] | IC50 (BT-16 cells) [nM] | IC50 (DAOY cells) [nM] |
| --- | --- | --- | --- |
| COc1cc([C@@H]2c3cc4c(cc3[C@@H](O[C@@H]3O[C@@H]5CO[C@@H](C)O[C@H]5[C@H](O)[C@H]3O)[C@H]3COC(=O)[C@H]23)OCO4)cc(OC)c1O [Etoposide, etoposide] | 967 | 800 | 495 |
| COc1cccc2c1C(=O)c1c(O)c3c(c(O)c1C2=O)C[C@@](O)(C(=O)CO)C[C@@H]3O[C@H]1C[C@H](N)[C@H](O)[C@H](C)O1 [Doxorubicin, doxorubicin] | 134 | 1430 | 263 |
